Test results: publication PMC5314947 (Cancer prevention research (Philadelphia, Pa.), 2009)
“And” between values parts separate entries of the source, which are not always exact repeats. Identical values can stand only once.

Key:
[1] = rhesus monkey, in vivo; cited from earlier work
[2] = human, in vivo, po
[3] = human, in vivo, po; remark: listed apart in the source
[4] = rat, in vivo; cited from earlier work

For `COc1cc2c(c3oc(=O)c4c(c13)CCC4=O)[C@@H]1C=CO[C@@H]1O2` [AFB1, aflatoxin B1], the “dose eliminated in urine as unbound within the first 24 hours” value [1] is given as ~ 30%, the “dose remaining in the liver” value [1] is given as 13.6% and the “dose remaining in the plasma” value [1] is given as 5.8%. For the same molecule, the “AFB1 dose excreted in urine in the first 72 hours” value [2] was 29.0 ± 2.31% and 34.4 ± 5.60% and 33.3 ± 2.79%, the “AUC_Extrap of AFB1 equivalents in plasma” value [3] was 50.9 ± 8% and the “Tmax of AFB1 equivalents in plasma” value [3] was 1.0 h and ~ 1 h. The “ka (absorption rate constant) of AFB1 equivalents in plasma” value [3] was 5.05 ± 1.10 h⁻¹, the “t1/2α (harmonic mean) of AFB1 equivalents in plasma” value [3] was 2.86 h and the “Á (disposition rate constant) of AFB1 equivalents in plasma” value [3] was 0.24 ± 0.06 h⁻¹. The “β (disposition rate constant) of AFB1 equivalents in plasma” value [3] was 0.01 ± 0.003 h⁻¹ and the “in situ absorption rate constant” value [4] was 5.84 ± 0.05 h⁻¹.
